Experimental data published in patent US20210045385A1, “PYRIDAZINONE-SUBSTITUTED KETOXIMES AS HERBICIDES” (FMC Corporation, priority 2018, published 2021).

Columns and labels:
Format in all cases: in vivo
[1] = test system: blackgrass (Alopecurus myosuroides); test: Test C postemergence, visual plant response rating
Source text: (§1) Seeds of plant species selected from barnyardgrass (Echinochloa crus-galli), kochia (Bassia scoparia), ragweed (common ragweed, Ambrosia artemisiifolia), Italian ryegrass (Lolium mutiflorum), foxtail, giant (giant foxtail, Setaria faberi), foxtail, green (green foxtail, Setaria viridis), and pigweed (Amaranthus retroflexus) were planted into a blend of loam soil and sand and treated preemergence with a directed soil spray using test chemicals formulated in anon-phytotoxic solvent mixture which included a surfactant.
(§2) At the same time, plants selected from these weed species and also wheat (Triticum aestivum), corn (Zea mays), blackgrass (Alopecurus myosuroides), and galium (catchweed bedstraw, Galium aparine) were planted in pots containing the same blend of loam soil and sand and treated with post emergence applications of test chemicals formulated in the same manner. Plants ranged in height from 2 to 10 cm and were in the one- to two-leaf stage for the postemergence treatment. Treated plants and untreated controls were maintained in a greenhouse for approximately 10 d, after which time all treated plants were compared to untreated controls and visually evaluated for injury. Plant response ratings, summarized in Table C, are based on a 0 to 100 scale where 0 is no effect and 100 is complete control. A dash (-)response means no test result.

corn (Zea mays) = test: Test C postemergence, visual plant response rating
Source text: as §1, §2

[2] = test system: ragweed (common ragweed, Ambrosia artemisiifolia); test: Test C postemergence, visual plant response rating
Source text: as §1, §2

[3] = test system: Italian ryegrass (Lolium mutiflorum); test: Test C postemergence, visual plant response rating
Source text: as §1, §2

[4] = test system: galium (catchweed bedstraw, Galium aparine); test: Test C postemergence, visual plant response rating
Source text: as §1, §2

[5] = test system: barnyardgrass (Echinochloa crus-galli); test: Test C postemergence, visual plant response rating
Source text: as §1, §2

kochia (Bassia scoparia) [6] = test: Test C postemergence, visual plant response rating
Source text: as §1, §2

[7] = test system: pigweed (Amaranthus retroflexus); test: Test C postemergence, visual plant response rating
Source text: as §1, §2

[8] = test system: foxtail, giant (giant foxtail, Setaria faberi); test: Test C postemergence, visual plant response rating
Source text: as §1, §2

[9] = test system: wheat (Triticum aestivum); test: Test C postemergence, visual plant response rating
Source text: as §1, §2

rice (Oryza sativa) = test: Test D flooded paddy test, visual plant response rating; details: 250 g ai/ha, scale 0 to 100 (0 no effect, 100 complete control), 13 to 15 d
Description: (§3) Plant species in the flooded paddy test selected from rice (Oryza sativa), sedge umbrella (small-flower umbrella sedge, Cyperus difformis) duck salad (Heteranthera limosa), and barnyardgrass (Echinochloa crus-galli) were grown to the 2-leaf stage for testing. At time of treatment, test pots were flooded to 3 cm above the soil surface, treated by application of test compounds directly to the paddy water, and then maintained at that water depth for the duration of the test. Treated plants and controls were maintained in a greenhouse for 13 to 15 d, after which time all species were compared to controls and visually evaluated. Plant response ratings, summarized in Table D, are based on a scale of 0 to 100 where 0 is no effect and 100 is complete control. A dash (-) response means no test result.

[10] = test system: barnyardgrass (Echinochloa crus-galli); test: as above; details: 250 g ai/ha, scale 0 to 100 (0 no effect, 100 complete control), 13 to 15 d
Description: as §3

[11] = test system: duck salad (Heteranthera limosa); test: as above; details: 250 g ai/ha, scale 0 to 100 (0 no effect, 100 complete control), 13 to 15 d
Description: as §3

[12] = test system: sedge umbrella (small-flower umbrella sedge, Cyperus difformis); test: as above; details: 250 g ai/ha, scale 0 to 100 (0 no effect, 100 complete control), 13 to 15 d
Description: as §3

[13] = test system: Italian ryegrass (Lolium mutiflorum); test: Test C preemergence, visual plant response rating
In short: (§4)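 Visual injury on a 0 (no effect) to 100 (complete control) scale versus untreated controls, scored approximately 10 d after treatment under greenhouse conditions. Treatments used surfactant-containing non-phytotoxic solvent formulations, sprayed onto loam–sand soil preemergence or onto one- to two-leaf plants 2–10 cm tall postemergence.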

[14] = test system: barnyardgrass (Echinochloa crus-galli); test: Test C preemergence, visual plant response rating
In short: as §4

kochia (Bassia scoparia) [15] = test: Test C preemergence, visual plant response rating
In short: as §4

[16] = test system: pigweed (Amaranthus retroflexus); test: Test C preemergence, visual plant response rating
In short: as §4

[17] = test system: foxtail, giant (giant foxtail, Setaria faberi); test: Test C preemergence, visual plant response rating
In short: as §4

[18] = Test C, postemergence, 125 g ai/ha
[19] = Test C, 31 g ai/ha, 0 is no effect, 100 is complete control
[20] = Test C, 125 g ai/ha, 0 is no effect, 100 is complete control

| SMILES | Blackgrass plant response rating (0 to 100 scale) ([1]; Postemergence, 31 g ai/ha) | Blackgrass plant response rating (0 to 100 scale) [1, 18] | Corn plant response rating (0 to 100 scale) (corn (Zea mays); Postemergence, 31 g ai/ha) | Corn plant response rating (0 to 100 scale) (corn (Zea mays); [18]) | Ragweed plant response rating (0 to 100 scale) ([2]; Postemergence, 31 g ai/ha) | Ragweed plant response rating (0 to 100 scale) [2, 18] | Ryegrass, Italian plant response rating (0 to 100 scale) ([3]; Postemergence, 31 g ai/ha) | Ryegrass, Italian plant response rating (0 to 100 scale) [3, 18] | Galium plant response rating (0 to 100 scale) ([4]; Postemergence, 31 g ai/ha) | Galium plant response rating (0 to 100 scale) [4, 18] | Barnyardgrass plant response rating (0 to 100 scale) ([5]; Postemergence, 31 g ai/ha) | Barnyardgrass plant response rating (0 to 100 scale) [5, 18] | Kochia plant response rating (0 to 100 scale) (kochia (Bassia scoparia) [6]; Postemergence, 31 g ai/ha) | Kochia plant response rating (0 to 100 scale) (kochia (Bassia scoparia) [6]; [18]) | Pigweed plant response rating (0 to 100 scale) ([7]; Postemergence, 31 g ai/ha) | Pigweed plant response rating (0 to 100 scale) [7, 18] | Foxtail, Giant plant response rating (0 to 100 scale) ([8]; Postemergence, 31 g ai/ha) | Foxtail, Giant plant response rating (0 to 100 scale) [8, 18] | Wheat plant response rating (0 to 100 scale) ([9]; Postemergence, 31 g ai/ha) | Wheat plant response rating (0 to 100 scale) [9, 18] | further results |
| --- | --- | --- | --- | --- | --- | --- | --- | --- | --- | --- | --- | --- | --- | --- | --- | --- | --- | --- | --- | --- | --- |
| C#CCO/N=C(\c1c(O)c(Cl)nn(C)c1=O)c1ccc(F)c2ccccc12 [Compound 220] | 30 | 80 | 10 | 40 | 60 | 100 | 70 | 100 | 70 | 100 | 40 | 80 | 50 | 80 | 80 | 100 | 60 | 100 | 40 | 90 | Plant response rating, Rice (Flood) (rice (Oryza sativa)): 0; Plant response rating, Barnyardgrass (Flood) [10]: 0; Plant response rating, Ducksalad (Flood) [11]: 0; Plant response rating, Sedge, Umbrella (Flood) [12]: 0; Ryegrass, Italian plant response rating (0 to 100 scale) [13, 19]: 30; Ryegrass, Italian plant response rating (0 to 100 scale) [13, 20]: 100; Barnyardgrass plant response rating (0 to 100 scale) [14, 19]: 0; Barnyardgrass plant response rating (0 to 100 scale) [14, 20]: 90; Kochia plant response rating (0 to 100 scale) (kochia (Bassia scoparia) [15]; [19]): 0; Kochia plant response rating (0 to 100 scale) (kochia (Bassia scoparia) [15]; [20]): 60; Pigweed plant response rating (0 to 100 scale) [16, 19]: 30; Pigweed plant response rating (0 to 100 scale) [16, 20]: 100; Foxtail, Giant plant response rating (0 to 100 scale) [17, 19]: 20; Foxtail, Giant plant response rating (0 to 100 scale) [17, 20]: 100 |
| CO/N=C(\c1c(OC(C)=O)c(Cl)nn(C)c1=O)c1cc(Br)cc2ccccc12 [Compound 231] | 10 | 20 | 0 | 20 | 100 | 100 | 0 | 10 | 70 | 100 | 30 | 70 | 10 | 20 | 20 | 60 | 30 | 70 | 0 | 0 | Plant response rating, Rice (Flood) (rice (Oryza sativa)): 0; Plant response rating, Barnyardgrass (Flood) [10]: 15; Plant response rating, Ducksalad (Flood) [11]: 75; Plant response rating, Sedge, Umbrella (Flood) [12]: 30; Ryegrass, Italian plant response rating (0 to 100 scale) [13, 20]: 0; Barnyardgrass plant response rating (0 to 100 scale) [14, 19]: 60; Barnyardgrass plant response rating (0 to 100 scale) [14, 20]: 90; Kochia plant response rating (0 to 100 scale) (kochia (Bassia scoparia) [15]; [20]): 0; Pigweed plant response rating (0 to 100 scale) [16, 19]: 40; Pigweed plant response rating (0 to 100 scale) [16, 20]: 50; Foxtail, Giant plant response rating (0 to 100 scale) [17, 19]: 30; Foxtail, Giant plant response rating (0 to 100 scale) [17, 20]: 90 |
| CCCCO/N=C(\c1cc(Cl)cc(Cl)c1Cl)c1c(O)c(C)nn(C)c1=O [Compound 183] | 0 | 0 | 0 | 0 | 20 | 100 | 40 | 60 | 10 | 30 | 0 | 40 | 0 | 10 | 0 | 10 | 30 | 80 | 0 | 0 | Plant response rating, Rice (Flood) (rice (Oryza sativa)): 0; Plant response rating, Barnyardgrass (Flood) [10]: 0; Plant response rating, Ducksalad (Flood) [11]: 0; Plant response rating, Sedge, Umbrella (Flood) [12]: 0; Ryegrass, Italian plant response rating (0 to 100 scale) ([13]; 125 g ai/ha): 80; Ryegrass, Italian plant response rating (0 to 100 scale) [13, 19]: 0; Barnyardgrass plant response rating (0 to 100 scale) ([14]; 125 g ai/ha): 70; Barnyardgrass plant response rating (0 to 100 scale) [14, 19]: 0; Kochia plant response rating (0 to 100 scale) (kochia (Bassia scoparia) [15]; 125 g ai/ha): 0; Kochia plant response rating (0 to 100 scale) (kochia (Bassia scoparia) [15]; [19]): 0; Pigweed plant response rating (0 to 100 scale) ([16]; 125 g ai/ha): 10; Pigweed plant response rating (0 to 100 scale) [16, 19]: 0; Foxtail, Giant plant response rating (0 to 100 scale) ([17]; 125 g ai/ha): 100; Foxtail, Giant plant response rating (0 to 100 scale) [17, 19]: 40 |
| CO/N=C(/c1c(O)c(Cl)nn(C)c1=O)c1ccc(F)c2ccccc12 [Compound 207] | 30 | 20 | 30 | 10 | 30 | 90 | 20 | 80 | 90 | 100 | 20 | 60 | 60 | 70 | 50 | 80 | 30 | 70 | 0 | 0 | Plant response rating, Rice (Flood) (rice (Oryza sativa)): 0; Plant response rating, Barnyardgrass (Flood) [10]: 0; Plant response rating, Ducksalad (Flood) [11]: 0; Plant response rating, Sedge, Umbrella (Flood) [12]: 0; Ryegrass, Italian plant response rating (0 to 100 scale) [13, 19]: 40; Ryegrass, Italian plant response rating (0 to 100 scale) [13, 20]: 80; Barnyardgrass plant response rating (0 to 100 scale) [14, 19]: 20; Barnyardgrass plant response rating (0 to 100 scale) [14, 20]: 80; Kochia plant response rating (0 to 100 scale) (kochia (Bassia scoparia) [15]; [19]): 0; Kochia plant response rating (0 to 100 scale) (kochia (Bassia scoparia) [15]; [20]): 60; Pigweed plant response rating (0 to 100 scale) [16, 19]: 50; Pigweed plant response rating (0 to 100 scale) [16, 20]: 80; Foxtail, Giant plant response rating (0 to 100 scale) [17, 19]: 30; Foxtail, Giant plant response rating (0 to 100 scale) [17, 20]: 90 |
